The test system of test [1] is mice immunosuppressed by administering cyclophosphamide (CY). Briefly: Spleen size and spleen index in cyclophosphamide (CY)-immunosuppressed mice. Type of test: in vivo, BALB/c mice. The note with it: CY (80 mg/kg IP) mice, CY group compared to normal group, LEV 40 mg/kg, red ginseng 100 mg/kg, GBPs 50, 100, 250, 500 mg/kg BW orally; for spleen size: FIG. 1; for spleen index: FIG. 2. As for the experimental part: Six-week-old male BALB/c mice (21-23 g) were purchased from the Central Lab, Animal Inc. (Korea) and housed under standard conditions with temperature maintained at 22±2° C. and a 12-h/12-h dark/light cycle.
(§1) In the present invention, 40 mice were randomly divided into 8 groups (n=5 per group) and variously treated according to Table 1.
(§2) Cyclophosphamide (CY) was used to induce immunosuppressive models by intraperitoneal (IP) injection at a dose of 80 mg/kg body weight (BW). […] In addition, ginseng was used with a commercially available product, and mice were sacrificed 24 hours after the last treatment of samples in Table 1.
The spleen was dissected and weighed. The spleen index was calculated according to Formula below:
Spleen index (mg/g)=spleen weight/body weight of mouse [Formula]

The next test deals with splenic lymphocytes. Put plainly: Splenic lymphocyte proliferation (EZ-Cytox) of splenocytes from treated mice, stimulated with Con A or LPS. In kind it is in vivo, BALB/c mice. The note with it: CY-treated group (80 mg/kg IP) compared to the normal group. How it is done: as §1, §2
For a further test, the system named is NK cells. Briefly: NK cell-mediated cytotoxicity assay, splenocytes co-cultured with YAC-1 cells. Type of test: in vivo, BALB/c mice. The note with it: CY-treated group (80 mg/kg IP); effector:target 50:1. How it is done: as §1, §2
Test [2] deals with immune-related genes (IL-1β, IL-2, IL-4, IL-6, TNF-α, IFN-γ, TLR-4, COX-2). Set-up: species or system BALB/c mice. To be noted: mouse, in vivo. As for the experimental part:
as §1, §2

With `O=P1(N(CCCl)CCCl)NCCCO1` (centres unmarked) [CY, Cyclophosphamide], in test [1], the spleen size result was “decreases in both spleen size and spleen indices”; the spleen index result was “decreases in both spleen size and spleen indices”. The “Con A-stimulated cell proliferation, reduction” value in the test on splenic lymphocytes (Con A 5 μg/ml) came to 48.1%. Also, in the test on splenic lymphocytes (LPS 10 μg/ml), the “LPS-stimulated cell proliferation, reduction” value worked out at 57.1%. The “activity of NK cells” value with NK cells is 42.9%. Further, the “mRNA expression levels of immune-related genes IL-2, IL-4, IL-6, TNF-α, IFN-γ, TLR-4 and COX-2” value in test [2] is given as “lower than those of the normal group”.
As for `c1ccc([C@H]2CN3CCSC3=N2)cc1` [LEV, Levamisole], in test [1], the spleen size result is “increased spleen size and indices”; the spleen index entry was “increased spleen size and indices”.

The record behind these values is US20250057872A1, “INNATE IMMUNOMODULATORY EFFECT OF GINSENG BERRY POLYSACCHARIDES IN IMMUNOCOMPROMISED CONDITIONS” (GANGNEUNG-WONJU NATIONAL UNIVERSITY INDUSTRY ACADEMY …, priority 2022, published 2025).
